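Step 1: Grow cells in 96-well plates. Step 2: Expose to compound for 48 hours at 5 concentrations. Step 3: Interpolate endpoints linearly; if unreached, use highest concentration. GI50 = concentration required for 50% inhibition of growth. TGI marks complete inhibition of growth.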
What was measured:
Experiment in all cases: inhibition of tumour cell growth, NCI panel, 48 h
HOP-92 NSCLC = system: HOP-92 NSCLC
HOP-62 NSCLC = system: HOP-62 NSCLC
A549 NSCLC = system: A549 NSCLC
EKVX NSCLC = system: EKVX NSCLC
SN12C renal = system: SN12C renal
MDA-MB-435 = system: MDA-MB-435
HCT-15 colon = system: HCT-15 colon
CCRF-CEM leukemia = system: CCRF-CEM leukemia
MDA-N = system: MDA-N
MALME-3M melanoma = system: MALME-3M melanoma

Row | Structure (SMILES) | GI50 (HOP-92 NSCLC) | TGI (HOP-92 NSCLC) | GI50 (HOP-62 NSCLC) | TGI (HOP-62 NSCLC) | GI50 (A549 NSCLC) | TGI (A549 NSCLC) | GI50 (EKVX NSCLC) | TGI (EKVX NSCLC) | GI50 (SN12C renal) | TGI (SN12C renal) | GI50 (MDA-MB-435) | TGI (MDA-MB-435) | GI50 (HCT-15 colon) | TGI (HCT-15 colon) | TGI (CCRF-CEM leukemia) | TGI (MDA-N) | TGI (MALME-3M melanoma) | GI50 (CCRF-CEM leukemia) | GI50 (MALME-3M melanoma)
1 | Nc1cc(N)c2nc(-c3ccccc3)c(Sc3ccc(F)cc3)nc2c1 | 22.9 µM | 54.8 µM | 16.6 µM | 34.3 µM | 13.5 µM | 30.9 µM | 20.5 µM | 41.2 µM | 17.6 µM | 35.4 µM | 16.3 µM | 32.9 µM | 13.4 µM | 27.4 µM |  |  |  |  | 
2 | COCN1C(=O)[C@@H]2C[C@@H](OC/C=C/CBr)CN2C(=O)c2ccccc21 |  |  |  | 54.6 µM |  | 35.5 µM |  | 50.4 µM |  | 33.3 µM |  | 50.9 µM |  | 56.2 µM | > 100 µM | 40.3 µM | 35.3 µM |  | 
3 | CC1=C2CC3=C(C)C(=O)O[C@H]3C[C@@H](C)[C@@H]2CC1 |  | > 100 µM |  |  |  |  |  | > 100 µM |  |  |  | > 100 µM |  | > 100 µM | > 100 µM |  | > 100 µM |  | 
4 | COc1cc(NS(C)(=O)=O)ccc1N1Cc2cnc3ccc4[nH]ccc1c4c23 |  | > 100 µM |  | > 100 µM |  | > 100 µM |  | > 100 µM |  | 66.6 µM |  | > 100 µM |  | > 100 µM | > 100 µM | > 100 µM |  |  | 
5 | N#C/C(=C/NC(=S)Nc1ccc(S(N)(=O)=O)cc1)C(N)=O |  | > 100 µM |  | > 100 µM |  | > 100 µM |  | > 100 µM |  | > 100 µM |  | > 100 µM |  | > 100 µM |  | > 100 µM | > 100 µM |  | 
6 | COc1cc(/C=C/C(=O)C(C)(C)C)cc(OC)c1OC |  | > 100 µM |  | > 100 µM |  | > 100 µM |  | > 100 µM |  | > 100 µM |  |  |  | > 100 µM | > 100 µM |  | > 100 µM |  | 
7 | C[N+]12C=CC=C1C(N1CCCC1)c1sc(-c3ccc(Cl)cc3)cc12 (stereo not drawn) |  |  |  | 31.3 µM |  | 87.6 µM |  | 79 µM |  | 27.9 µM |  | 29.1 µM |  | 90.5 µM | 62.8 µM | 30.4 µM | 31.1 µM |  | 
8 | COc1ccc2[nH]c3c(C)c4ccnc(NCCCN(C)CCCNC(=O)NCCCN(C)CCCNc5nccc6c(C)c7[nH]c8ccc(OC)cc8c7c(C)c56)c4c(C)c3c2c1 |  | 3.93 µM |  | 2.11 µM |  |  |  | 2.56 µM |  | 2.91 µM |  | 1.24 µM |  | > 17.6 µM | 6.01 µM |  |  |  | 
9 | COc1cc2c(oc(=O)c3c4oc([Si](C)(C)C)cc4cc(OC)c23)c2cccc(O)c12 |  | > 100 µM |  | > 100 µM |  | > 100 µM |  | > 100 µM |  | > 100 µM |  |  |  | > 100 µM | > 100 µM |  | > 100 µM |  | 
10 | COc1cc2c(cc1C)NC(=O)/C2=C/c1c(Cl)n(C)c2ccccc12 |  |  |  | 29.5 µM |  | 42 µM |  | 28.1 µM |  | 33.3 µM |  | 3.69 µM |  | 20.5 µM | > 100 µM | 5.53 µM | 22.5 µM |  | 
11 | CC(=O)NC(Cc1ccccc1)C(=S)N1CCCC1 (stereo not drawn) |  | > 100 µM |  | > 100 µM |  | > 100 µM |  | > 100 µM |  | > 100 µM |  |  |  | > 100 µM | > 100 µM |  | > 100 µM |  | 
12 | c1ccc(C2(c3cc4ccccc4[nH]3)OCCO2)cc1 |  | > 100 µM |  |  |  | > 100 µM |  | > 100 µM |  | > 100 µM |  | > 100 µM |  | > 100 µM | 74 µM | > 100 µM |  |  | 
13 | O=C(CCc1nnc2s/c(=C\c3ccc(Cl)cc3Cl)c(=O)n12)Nc1cc(Cl)c(Cl)cc1Cl |  | > 100 µM | > 100 µM | > 100 µM | > 100 µM | > 100 µM | > 100 µM | > 100 µM | > 100 µM | > 100 µM |  |  | > 100 µM | > 100 µM | > 100 µM |  | > 100 µM | > 100 µM | > 100 µM
14 | Cc1ccc(CCNC(=S)SCC(NC(=O)CCC(N)C(=O)O)C(=O)NCC(=O)O)cc1 (stereo not drawn) |  | 2.8 µM |  | 8.08 µM |  | 13.4 µM |  | 18.6 µM |  | 3.84 µM |  |  |  | 3.72 µM | 2.18 µM |  | 4.47 µM |  | 
15 | COc1nc(NC2OCC(OC(C)=O)C(OC(C)=O)C2OC(C)=O)c(N=C(C)C(C)=O)c(=O)n1C (stereo not drawn) |  | > 100 µM |  |  |  | > 100 µM |  | > 100 µM |  | > 100 µM |  |  |  | > 100 µM | > 100 µM |  | > 100 µM |  | 
16 | CC(C)(C)OC(=O)NCCNC(=O)OCc1ccccc1 |  | > 100 µM |  | > 100 µM |  | > 100 µM |  | > 100 µM |  | > 100 µM |  | > 100 µM |  | > 100 µM |  | > 100 µM | > 100 µM |  | 
17 | COC(=O)c1ccc2[nH]c3c(c2c1)CC(=O)Nc1ccccc1-3 |  |  |  | > 100 µM |  | > 100 µM |  | > 100 µM |  | > 100 µM |  | > 100 µM |  | > 100 µM |  | > 100 µM | > 100 µM |  | 
18 | CCC1(CC)C(=O)N(C(=O)c2ccc(Cl)cc2)N(C(=O)c2ccccc2Cl)C1=O |  |  |  | > 100 µM |  | > 100 µM |  | 24.9 µM |  | > 100 µM |  | 43.9 µM |  | > 100 µM | > 100 µM | > 100 µM | > 100 µM |  | 
19 | COC[C@@H](N=Cc1ccc(OC)cc1)C(C)C |  |  |  | > 100 µM |  | > 100 µM |  | > 100 µM |  | > 100 µM |  | > 100 µM |  | > 100 µM | > 100 µM | > 100 µM | > 100 µM |  | 
20 | O=C(N/N=C/c1cc(-c2ccccc2Cl)c(-c2ccccc2Cl)o1)c1ccncc1 |  | > 100 µM |  | > 100 µM |  | > 100 µM |  | > 100 µM |  | > 100 µM |  |  |  |  |  |  | > 100 µM |  | 
21 | COC(=O)c1cc(CNCCc2c[nH]c3ccccc23)on1 |  | > 100 µM |  | > 100 µM |  | > 100 µM |  | > 100 µM |  | > 100 µM |  |  |  | > 100 µM | > 100 µM | > 100 µM | > 100 µM |  | 
22 | O=c1[nH]c2cccccc-2c1-c1nc2ccccc2[nH]1 |  | 93.6 µM |  | 94.8 µM |  | > 100 µM |  | > 100 µM |  | > 100 µM |  |  |  | > 100 µM | > 100 µM |  | 50.6 µM |  | 
23 | Cc1ccc(-c2c(C#N)c(O)n(NS(=O)(=O)c3ccccc3)c(=O)c2C#N)cc1 |  | > 100 µM |  | > 100 µM |  | > 100 µM |  | > 100 µM |  | > 100 µM |  | > 100 µM |  | > 100 µM | > 100 µM |  | > 100 µM |  | 
24 | COc1ccccc1C1C(Cl)C(=O)N1NC(=O)Cc1ccccc1 (stereo not drawn) |  |  |  | > 100 µM |  | > 100 µM |  | > 100 µM |  | > 100 µM |  |  |  | > 100 µM | > 100 µM |  | > 100 µM |  | 
